Reference: paper PMC6384730, “Systematic Identification of Thiosemicarbazides for Inhibition of Toxoplasma gondii Growth In Vitro” (Molecules, 2019)
Values after ≈ are worked out from the molar mass of the structure shown. Values joined by “and” are separate entries in the source; they are usually repeats but may differ in a detail not shown here. Identical values can stand only once. Like-named read-outs stand apart in the source and are kept apart here.

Tests used:
[1] = MTT cell viability (cytotoxicity) assay on L929 cells; type: cell-based, mouse; conditions: mouse, L929 mouse fibroblast cells, 24 h, % of untreated cells; for viability at 24 h, 62.5 µg/mL: 62.50 µg/mL
Description: (§1) Cells were trypsinized twice a week, and seeded at density 1 × 10^6 per T25 cell culture flask, and incubated for 24-48 h at 37 °C and 10% CO2 to achieve a confluent monolayer. […] The final concentration of DMSO in compounds dilutions was not higher than 1.00%. […] Dilution of the all compounds 2-22 and drug were freshly prepared before the cells were exposed. […] The MTT assay was used according to international standards: ISO 10993-5:2009(E), Biological evaluation of medical devices, Part 5: Tests for in vitro cytotoxicity. […] Afterward, the culture medium in the plates was replaced by 100 μL of compounds and sulfadiazine suspension and the cells were exposed for 24 h. Then, 1 mg/mL of MTT solution in RPMI 1640 without phenol red was prepared and 50 μL of the solution was added to each well and incubated at 37 °C, 10% CO2 for 2 h. Mitochondrial dehydrogenases of viable cells reduced the yellowish water-soluble MTT to water-insoluble formazan crystals, which were solubilized with dimethyl sulfoxide (DMSO). The cell culture medium was aspirated cautiously, after which 150 μL DMSO was added to each well, the plates were gently mixed, then 25 μL 0.1 M glycine buffer (pH = 10.5) (Sigma) was added. Optical density was read on the ELISA reader (Multiskan EX, Labsystems, Vienna, VA, USA) at 570 nm. The results were expressed as the percentage of viability compared to untreated cells. All experiments were performed in triplicate. Moreover, cells were treated with 4.0-0.03% concentration of DMSO as a compounds solvent (data not shown).

[2] = system: L929 cells; experiment: as above; type: cell-based, mouse; conditions: L929 cells, 24 h exposure
Description: as §1

[3] = system: T. gondii RH tachyzoites; experiment: Influence on T. gondii proliferation ([3H]uracil incorporation) in infected Vero cells; type: cell-based, Toxoplasma gondii; conditions: for IC50: Toxoplasma gondii, Vero
Description: Vero cell line (African green monkey kidney) (ATCC® CCL-81™) were maintained in EMEM (EMEM/10%HIFBS/P/S) (Eagle’s Minimum Essential Medium—ATCC® 30-2003™) culture medium supplemented with 10% HIFBS (Heat-Inactivated (1 h in 56°C) Fetal Bovine Serum—ATCC), 100 U/mL penicillin, 100 μg/mL streptomycin. The cell line was trypsinized (using Trypsin-EDTA Solution, 1X ATCC® 30-2101™) twice a week, and seeded at density 1 × 10^6 per T25 cell culture flask (Falcon), and incubated for 24–48 h at 37 °C and 5 CO2 to achieve a confluent monolayer. The highly virulent RH strain of Toxoplasma gondii, haplogroup I (ATCC® PRA-310™) were maintained as tachyzoites according to the ATCC product sheet, in DMEM (Dulbecco’s Modified Eagle’s Medium—ATCC® 30-2002™) (DMEM/3%HIFBS/P/S—parasite culture medium) under condition 37 °C and 5 CO2 and passage twice per week.
The Vero cells were seeded on 96-well plates (1 × 10^5 cells/100 µL/well) in EMEM/10%HIFBS/P/S. After 24 h of incubation medium was removed and then T. gondii RH tachyzoites were added to the cell monolayers at density 1 × 10^5 cells/100 µL/well in DMEM/3%HIFBS/P/S. One hour later different compounds and sulfadiazine dilutions (100 µL/well) in parasite culture medium were added to the cell monolayers with T. gondii. After subsequent 24 h of incubation 1 µCi/well [5,6-^3H] uracil (Moravek Biochemicals Inc., Brea, CA, USA) was applied to each microculture for further 72 h. The amount of the isotope incorporated into the parasite nucleic acid pool, corresponding to the parasite growth, was measured by liquid scintillation counting using 1450 Microbeta Plus Liquid Scintillation Counter (Wallac Oy, Turku, Finland). The results were expressed as counts per minute (CPM) and transformed to the percentage of viability compared to untreated cells. All experiments were performed in triplicate.

[4] = RH tachyzoites in Vero cells, [3H]uracil incorporation, highest concentration tested 125 µg/mL, read-out: IC50 (50% inhibition of T. gondii proliferation in vitro)
[5] = IC50 greater than 125 µg/mL (highest concentration tested), calculated by extrapolation of the curves (GraphPad Prism), read-out: IC50 (50% inhibition of T. gondii proliferation in vitro), extrapolated

Row | melting point | SMILES | viability at 24 h, 3.91 µg/mL [1] | viability at 24 h, 7.81 µg/mL [1] | viability at 24 h, 15.63 µg/mL [1] | viability at 24 h, 31.25 µg/mL [1] | viability at 24 h, 62.5 µg/mL [1] | viability at 24 h, 125 µg/mL [1] | viability at 24 h, 250 µg/mL [1] | viability at 24 h, 500 µg/mL [1] | CC30 (concentration required for 30% cells proliferation inhibition) [2] | IC50 [3, 4] | IC50 [3, 5] | fold more potent than sulfadiazine ([3]; T. gondii proliferation, IC50 ratio) | IC50 (50% inhibition of T. gondii proliferation in vitro) ([3]; RH tachyzoites in Vero cells, [3H]uracil incorporation, highest concentration tested 125 µg/mL)
1 |  | COc1ccccc1NC(=S)NNC(=O)c1[nH]cnc1C [Compound 5, 4-(2-Methoxyphenyl)-1-(4-methylimidazol-5-oyl)thiosemicarbazide] | 95.8% | 91.9% | 89% | 86.5% | 78.5% | 69.7% | 63.1% | 53.6% | 138.04 µg/mL | 33.1 µg/mL (≈ 108 µM) |  |  | 
2 | 223 to 225 °C | COc1ccc(NC(=S)NNC(=O)c2[nH]cnc2C)cc1OC [Compound 13, 4-(3,4-Dimethoxyphenyl)-1-(4-methylimidazol-5-oyl)thiosemicarbazide] | 107% | 105% | 103% | 99.8% | 97.5% | 95.7% | 94.2% | 77% | >500.00 µg/mL and >500 µg/mL |  | ~175 µg/mL (≈ 522 µM) |  | 
3 | 210 to 212 °C | Cc1ccccc1NC(=S)NNC(=O)c1[nH]cnc1C [Compound 16, 1-(4-Methylimidazol-5-oyl)-4-(2-methylphenyl)thiosemicarbazide] | 103% | 102% | 100% | 93.8% | 91.2% | 79.7% | 71.5% | 63.4% | 288.40 µg/mL |  | ~150 µg/mL (≈ 519 µM) |  | 
4 | 193 to 195 °C | Cc1cccc(NC(=S)NNC(=O)c2[nH]cnc2C)c1 [Compound 17, 1-(4-Methylimidazol-5-oyl)-4-(3-methylphenyl)thiosemicarbazide] | 94.1% | 88.7% | 85.7% | 74.8% | 64.9% | 56.5% | 50% | 40.7% | 50.12 µg/mL | 37.1 µg/mL (≈ 128 µM) |  |  | 
5 | 215 to 217 °C | Cc1nc[nH]c1C(=O)NNC(=S)Nc1ccccc1[N+](=O)[O-] [Compound 2, 1-(4-Methylimidazol-5-oyl)-4-(2-nitrophenyl)thiosemicarbazide] | 103% | 101% | 96.7% | 94.6% | 89.7% | 75.3% | 53.4% | 29.1% | 181.55 µg/mL | 43 µg/mL (≈ 134 µM) |  |  | 
6 | 203 to 205 °C | Cc1nc[nH]c1C(=O)NNC(=S)Nc1cccc(Cl)c1 [Compound 10, 4-(3-Chlorophenyl)-1-(4-methylimidazol-5-oyl)thiosemicarbazide] | 95.7% | 94.1% | 93.5% | 74.6% | 72.1% | 69.9% | 61.8% | 22.1% | 112.20 µg/mL | 25.7 µg/mL (≈ 83 µM) |  |  | 
7 | 235 to 237 °C | Cc1nc[nH]c1C(=O)NNC(=S)Nc1ccc([N+](=O)[O-])cc1 [Compound 4, 1-(4-Methylimidazol-5-oyl)-4-(4-nitrophenyl)thiosemicarbazide] | 98.5% | 95.7% | 95.1% | 93.1% | 88.9% | 79.6% | 66.9% | 23.2% | 238.78 µg/mL | 21.6 µg/mL (≈ 67.5 µM) |  | 184 fold | 
8 |  | Cc1ccc(NC(=S)NNC(=O)c2[nH]cnc2C)cc1 [Compound 18] | 99.1% | 91.7% | 82% | 69% | 64.6% | 63.7% | 60.4% | 53% | 34.67 µg/mL | ~57.6 µg/mL (≈ 199 µM) |  |  | 
9 |  | Cc1nc[nH]c1C(=O)NNC(=S)NCc1ccccc1 [Compound 8, 4-Benzyl-1-(4-methylimidazol-5-oyl)thiosemicarbazide] | 101% | 99.4% | 96.5% | 92% | 88.8% | 64.9% | 53.3% | 46.6% | 123.03 µg/mL |  | ~150 µg/mL (≈ 517 µM) |  | 
10 |  | CCOc1ccc(NC(=S)NNC(=O)c2[nH]cnc2C)cc1 [Compound 21, 4-(4-Ethoxyphenyl)-1-(4-methylimidazol-5-oyl)thiosemicarbazide] | 115% | 114% | 112% | 106% | 101% | 84.3% | 82.3% | 72% | 500.00 µg/mL and 500 µg/mL | 95.3 µg/mL (≈ 298 µM) |  |  | 
11 |  | Cc1nc[nH]c1C(=O)NNC(=S)Nc1cccc([N+](=O)[O-])c1 [Compound 3, 1-(4-Methylimidazol-5-oyl)-4-(3-nitrophenyl)thiosemicarbazide] | 95.4% | 94.6% | 94.6% | 89.4% | 79% | 72.4% | 55.8% | 15.3% | 141.25 µg/mL | 14.8 µg/mL (≈ 46.1 µM) |  |  | 
12 |  | COc1ccc(NC(=S)NNC(=O)c2nc[nH]c2C)cc1 [Compound 7] | 95.1% | 90.3% | 89.5% | 87.7% | 85.8% | 84% | 70.7% | 68.6% | 389.05 µg/mL | 114 µg/mL (≈ 373 µM) |  |  | 
13 |  | Cc1nc[nH]c1C(=O)NNC(=S)Nc1cc(F)ccc1F [Compound 15, 4-(2,5-Difluorophenyl)-1-(4-methylimidazol-5-oyl)thiosemicarbazide] | 105% | 102% | 101% | 96.2% | 84.3% | 74.8% | 65.2% | 51.2% | 158.49 µg/mL | 53.1 µg/mL (≈ 170 µM) |  |  | 53.70 µg/mL
14 |  | CC(=O)c1cccc(NC(=S)NNC(=O)c2[nH]cnc2C)c1 [Compound 12, 4-(3-Acetylphenyl)-1-(4-methylimidazol-5-oyl)thiosemicarbazide] | 106% | 104% | 103% | 101% | 99.3% | 96.7% | 76.8% | 56.2% | 206.54 µg/mL | 95.5 µg/mL (≈ 301 µM) |  |  | 
